The text below walks through data of patent EP0443560A2, “HIV protease inhibitors” (priority 1990, dated 1991).

Read-outs that look alike come from different tables or passages of the source.

Assay [1] addresses T1, HIV protease (Human immunodeficiency virus type 1 group M subtype B, UniProt P04585).
T1 construct: HIV protease was expressed in E. coli [construct pBRT1 prt⁺; made in house; host or cells: E. coli
Kind of assay: Recombinant HIV Protease HPLC Assay. Type of assay: biochemical. The source says: The procedure is based on the capacity of the test compound to inhibit enzymatic cleavage by HIV protease of a decapeptide (the substrate) having an amino acid sequence which includes a known HIV protease cleavage site of a HIV polyprotein; see H.G. Krausslich et al., Proc. Natl. Acad. Sci. USA, 86, 807 (1989). Details of this assay together with the results obtained for exemplified compounds of formula 1 are described in the examples hereinafter.
Recombinant HIV Protease HPLC Assay:
HIV protease was expressed in E. coli [construct pBRT1 prt⁺, see W.G. Farmerie et al., Science, 236, 305 (1987)], according to the following protocol: Unless stated otherwise, all solutions are aqueous solutions.
E. coli cells containing the pBRT1 prt⁺ plasmid were used to inoculate a seed culture media composed of Luria-Bertani Broth containing 100µg/mL of ampicillin. Flasks were incubated at 37° under agitation for 17 h. Production flasks containing sterile M9 broth, supplemented with 100µg/ml of ampicillin, were inoculated at a level of 1% (v/v) using the seed culture described above. Total volume in each production flask was 500 mL in a 2 L Erlenmeyer flask. Flasks were incubated at 37° under agitation until a cell concentration corresponding to an optical density (λ = […]) of 0.6 was reached (no dilution). This time span was routinely 3-4 h. Flasks were then supplemented with 5mM isopropylthiogalactoside (IPTG, Research Organics, Cleveland, Ohio, USA) and incubation was continued until the cell concentration reached an optical density of 0.2 at 16-fold dilution. Flasks were then supplemented with 1mM phenylmethylsulfonyl fluoride (PMSF) and rapidly chilled to 4°. The bacterial cells were recovered by centrifugation at 4°. The wet pellet was stored at -70°.
All steps below were performed at 4° unless otherwise indicated. Thawed cells were mixed with buffer A [50 mM tris(hydroxymethyl)[…] HCl(Tris-HCl, pH 7.4); 0.6 mM ethylenediaminetetraacetic acid (EDTA); 0.375 M NaCl, 0.2% Nonidet P-40 ® (BDH Chemicals Ltd., Poole, UK); 1mM PMSF], at a ratio of one part cells to nine parts buffer A. Diatomaceous earth (Celite 545 ® , John Manville, Lompoc, CA, USA) was added at a ratio of two parts to one part of wet cell weight. The resulting slurry was homogenized at high speed (ca. 20,000 rpm) on a Waring ® industrial blender for 8 x 15 sec. pulses. Cell debris/Celite ® was collected by centrifugation and the resulting pellet was extracted with 4.5 parts of buffer A to one part wet solids using the homogenization procedure described above. Supernatants from both homogenization steps were combined and soluble protein was precipitated by the addition of solid (NH₄)₂SO₄ to yield a final concentration of 75% saturation. This mixture was agitated for 60 min and the precipitate was recovered by centrifugation. The resulting pellet was suspended in buffer B [50mM Tris-HCl, pH 8; 30 mM NaCl; 1 mM DL-dithiothreitol(DTT); 1 mM EDTA; 1 mM PMSF; 10% glycerol], and dialyzed for 18h against the same buffer.
An aliquot of the dialyzed extract containing 150 mg of the protein was loaded onto a Sephadex A25 ® anion exchange column. (Pharmacia, Uppsala, Sweden) with bed dimensions of 70 cm length and 2.5 cm diameter. The sample was eluted isocratically with buffer B at a linear flow rate of 10 cm/h. Fractions containing HIV protease activity (see below for assay description) were combined, and soluble protein was precipitated by the addition of saturated aqueous (NH₄)₂SO₄ to yield a total (NH₄)₂SO₄ concentration of 85% saturation. Precipitated protein was removed by centrifugation and the resulting pellet was dissolved in buffer C [50 mM 2-(4-morpholino)ethanesulfonic acid (MES), pH 5.5; 150 mM NaCl; 1 mM DTT; 1 mM EDTA; 10% glycerol). This preparation was dialyzed for 18h against buffer C, and then frozen at -70°. All crude extracts were purified by chromatography in aliquots containing 150 mg of protein in the same manner as described above. […]

Assay [2] deals with H9/HTLV-IIIB. The assay is described as follows: Inhibition of syncytia formation in HIV-infected C8166 cells (antiviral screen adapted from plaque assay of Harada et al.). Type of assay: cell-based. The note with it: Human immunodeficiency virus 1, IIIB, 72 h. The source says: Typical of such procedures are those described by S. Harada and N. Yamamoto, Jpn. J. Cancer Res. (Gann), 76, 432 (1985), and S. Harada et al., Science, 229, 563 (1985). An assay based on the latter procedures is described in the examples hereinafter.
The following protocol, used for screening antiviral effects of the compounds of formula 1 , is adapted from a plaque assay utilizing HTLV-I transformed cells which was developed by Harada et al., supra. HTLV-I transformed cells are used in these assays because of the rapidity with which HIV will replicate in these cells. • 1. The test compound is dissolved in dimethylsulfoxide to a concentration of 5 mg/mL. The resultant solution can be stored at 4° until used. • 2. The resultant solution is diluted in RPMI 1640 (Gibco Laboratories, St. Lawrence, MA, USA) to four times (4x) the final concentration which is to be tested. Once diluted in RPMI 1640, the solution is used in the cell culture assay within 4 h. • 3. The 4x solution (50µL) is added to triplicate wells of a 96 well flat bottomed microtiter plate. […] Infectious titer of virus stocks are as previously determined by end point dilution on C8166 cells. […] Plates are then removed and centers of syncytia are counted in each well by low power phase contrast light microscopy. […] Percent inhibition of syncytia formation is calculated by the formula: [formula]

The mark [3] stands for this setting: recombinant HIV protease HPLC assay, values in parenthesis in text, read-out: IC₅₀.

As usually defined, the inhibition is the relative decrease from the control value, in per cent. A higher inhibition goes with a response far below the control.

Consider `CC(C)(C)OC(=O)NC(CNC(CC1CC1)C(=O)NC(CCC(=O)O)C(=O)NCCCc1ccccc1)Cc1ccccc1` (stereo not drawn) [Example 2, Boc-PheΨ[CH₂NH]Cpa-Glu-NHCH₂CH₂CH₂Ph], for which the IC50 in assay [1] was found to be 13 nM. This compound returned an inhibition at 20 µg/mL in assay [2] of 54%.
In the same order, the values of `CC(C)(C)OC(=O)NC(CC1CCCCC1)C(O)CC(=O)NC(CCC(=O)O)C(=O)NCCCc1ccccc1` (stereo not shown) [Example 4, Boc-ACHPA-Glu-NHCH₂CH₂CH₂Ph] are 7 nM and 96%.
For the compound Boc-PheΨ[CH₂NH]Cpa-Glu-NHCH₂CH₂-(4F-Ph), the IC50 in assay [1] (setting [3]) is 8.4 nM.
Turning to “Boc-PheΨ[CH₂NH]Cpa-Glu-NHCH₂CH₂CH₂-(4F-Ph)”, the IC50 in assay [1] (setting [3]) was 8 nM.
Still for that read-out and setting: the same measure for Boc-homoACHPA-Glu-NHCH₂CH₂CH₂Ph: 68 nM.
